Experimental data from US20050101595A1, “N-containing cycloalkyl-substituted amino-thiazole derivatives and pharmaceutical compositions for inhibiting cell proliferation and methods for their use” (PFIZER INC., priority 2003, published 2005).
Structures can show the parent of a compound that is named as a salt. Where two headings read alike, the source gives them in different places.

Tests used:
[1] = target: human CDK4 and genetically truncated (1-264) cyclin D3 (Homo sapiens, UniProt P11802); assay: Inhibition of CDK4/Cyclin D Retinoblastoma Kinase Activity; assay type: biochemical; settings: for Ki: apparent Ki, CDK4/truncated cyclin D3, Rb fragment substrate, 25 μM ATP
Chain of human CDK4 and genetically truncated (1-264) cyclin D3 (P11802 whole entry, the tested form may be a part): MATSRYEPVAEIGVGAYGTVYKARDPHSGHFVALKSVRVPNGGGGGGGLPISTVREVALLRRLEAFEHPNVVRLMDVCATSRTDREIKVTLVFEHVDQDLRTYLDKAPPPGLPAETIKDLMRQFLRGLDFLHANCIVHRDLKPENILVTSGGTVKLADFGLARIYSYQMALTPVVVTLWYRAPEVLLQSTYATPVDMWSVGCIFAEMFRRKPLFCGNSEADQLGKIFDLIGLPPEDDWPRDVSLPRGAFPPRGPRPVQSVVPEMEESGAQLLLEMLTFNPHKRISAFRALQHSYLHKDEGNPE
Chain of human CDK4 and genetically truncated (1-264) cyclin D3 (P30281 1-264 partner): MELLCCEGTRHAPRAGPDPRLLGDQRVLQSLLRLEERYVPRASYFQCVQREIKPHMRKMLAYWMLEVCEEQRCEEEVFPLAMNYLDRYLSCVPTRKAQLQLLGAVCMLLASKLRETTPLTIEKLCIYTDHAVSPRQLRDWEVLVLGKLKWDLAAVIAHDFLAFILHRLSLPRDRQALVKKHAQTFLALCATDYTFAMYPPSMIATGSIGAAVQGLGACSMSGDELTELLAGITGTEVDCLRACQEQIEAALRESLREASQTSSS
Procedure, shortened: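 Apparent Ki values come from competitive or competitive tight-binding inhibition fits of background-corrected 32P/33P incorporation into His-tagged Rb fragment (386-928), captured on nitrocellulose. Reaction: 5 nM insect-cell-expressed human CDK4 with cyclin D3 (1-264), 25 μM ATP, pH 7.4 HEPES, 2% DMSO, 30° C., 20 min, extended to 60 min for tight-binding inhibitors.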

[2] = tested on: HCT-116 cell line; assay: Inhibition of cell growth, tetrazolium salt (MTT) assay; assay type: cell-based; settings: for IC50: Homo sapiens, HCT-116, 120 h, MTT, three to five days, read-out: HCT-116 IC50; for HCT-116 % Inhibition at 0.25 μM: 0.25 μM compound
Procedure, shortened: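 Growth inhibition is scored relative to cells receiving only 0.5% (v/v) DMSO. Plated cells rest 4 h, then take compound for three to five days at 37° C; MTT reduction to formazan is read at 540 nm.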

[3] = target: CDK2/Cyclin A (Homo sapiens, UniProt P24941); assay: Inhibition of CDK2/Cyclin A Retinoblastoma Kinase Activity; assay type: biochemical; settings: for Ki: apparent Ki, CDK2/proteolyzed cyclin A, Rb fragment substrate, 25 μM ATP; for CDK2 % Inhibition At 0.03 μM: Table 2
Procedure, shortened: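 Radiometric filter-binding readout of phosphate transfer to an Rb substrate fragment by purified CDK2/truncated cyclin A at 10 or 19 nM. Run at pH 7.4 with 25 μM ATP, 30 °C, 60–75 min, linear rates; background without enzyme subtracted, Ki from competitive-inhibition models.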

[4] = 0.1 μM compound, HCT-116, Table 4
[5] = 0.1 μM compound, HCT-116, Table 3

Nc1nc(NC2CCN(S(=O)(=O)c3ccc(N4CCC[C@H](CO)C4)nc3)CC2)sc1C(=O)c1c(F)cccc1F [Example G18]
Ki [1]: 0.00058 µM
IC50 ([2]; first HCT-116 column (c4)): 0.12 µM
IC50 ([2]; second HCT-116 column (c5)): 0.6 µM
Ki [3]: 0.00039 µM
melting point: > 149 °C (dec.)

CN(C)CCCc1ccc(S(=O)(=O)N2CCC(Nc3nc(N)c(C(=O)c4c(F)cccc4F)s3)CC2)cc1 (as salt: salt) [Example I10, 1-(4-Amino-2-{1-[4-(3-dimethylamino-propyl)-benzenesulfonyl]-piperidin-4-ylamino}-thiazol-5-yl)-1-(2,6-difluoro-phenyl)-methanone D-Glucuronic Acid Salt]
melting point: 117 to 120 °C

CN(C)CCCOc1ccc(S(=O)(=O)N2CCC(Nc3nc(N)c(C(=O)c4c(F)cccc4F)s3)CC2)cn1 [Example H15, 1-(4-Amino-2-{1-[6-(3-dimethylamino-propoxy)-pyridine-3-sulfonyl]-piperidin-4-ylamino}-thiazol-5-yl)-1-(2,6-difluoro-phenyl)-methanone Hydrochloride]
Ki [1]: 0.00034 µM
IC50 ([2]; first HCT-116 column (c4)): 0.071 µM
IC50 ([2]; second HCT-116 column (c5)): 0.5 µM
Ki [3]: 0.00064 µM

Nc1nc(NC2CCN(C(=O)c3ccncc3)CC2)sc1C(=O)c1c(F)cccc1F [Example Q81]
CDK4 % Inhibition at 0.03 μM ([1]; 0.03 μM compound, Table 4): 19%
HCT-116 % Inhibition at 0.1 μM [2, 4]: 4%
HCT-116 % Inhibition at 0.25 μM ([2]; HCT-116, Table 4): 37%
CDK2 % Inhibition at 0.03 μM ([3]; 0.03 μM compound, Table 4): 6%

Nc1nc(NC2CCN(S(=O)(=O)c3ccc(N4CCCC(O)C4)nc3)CC2)sc1C(=O)c1c(F)cccc1F (stereo not drawn) [Example G12, 1-{4-Amino-2-[1-(3-hydroxy-3,4,5,6-tetrahydro-2H-[1,2′]bipyridinyl-5′-sulfonyl)-piperidin-4-ylamino]-thiazol-5-yl}-1-(2,6-difluoro-phenyl)-methanone Trifluoroacetic Acid Salt]
Ki [1]: 0.0012 µM
IC50 ([2]; first HCT-116 column (c4)): 0.28 µM
IC50 ([2]; second HCT-116 column (c5)): > 0.5 µM
Ki [3]: 0.00049 µM

COc1cc(C(=O)N2CCC(Nc3nc(N)c(C(=O)c4c(F)cccc4F)s3)CC2)ccc1C [Example R155]
CDK4 % Inhibition at 0.03 μM ([1]; at 0.03 μM): 67%
HCT-116 % Inhibition at 0.1 μM ([2]; HCT-116 cells, at 0.1 μM): 0%
HCT-116 5 Inhibition at 0.25 μM ([2]; HCT-116 cells): 67
CDK2 % Inhibition at 0.03 μM ([3]; at 0.03 μM): 45%

N#Cc1ccc(S(=O)(=O)N2CCCC(Nc3nc(N)c(C(=O)c4c(F)cccc4F)s3)C2)cc1 (stereo not drawn) [Example F35, 4-{3-[4-Amino-5-(2,6-difluoro-benzoyl)-thiazol-2-ylamino]-piperidine-1-sulfonyl}-benzonitrile]
Ki [1]: 0.34 µM
IC50 ([2]; first HCT-116 column (c4)): 1.6 µM
IC50 ([2]; second HCT-116 column (c5)): 2.6 µM
Ki [3]: 0.076 µM

COc1ccc(NC(=O)N2CCC(Nc3nc(N)c(C(=O)c4c(F)cccc4F)s3)CC2)c(OC)c1 [Example O8]
CDK4 % Inhibition at 0.03 μM ([1]; 0.03 μM compound, Table 2): 15%
HCT-116 % Inhibition at 0.25 μM ([2]; HCT-116, Table 2): 0%
CDK2 % Inhibition At 0.03 μM ([3]; 0.03 μM compound): 37%

Nc1nc(NC2CCN(S(=O)(=O)Cc3ccccc3)CC2)sc1C(=O)c1c(F)cccc1F [Example P25]
CDK4 % Inhibition at 0.03 μM ([1]; 0.03 μM compound, Table 3): 82%
HCT-116 % Inhibition at 0.1 μM [2, 5]: 8%
HCT-116 % Inhibition at 0.25 μM ([2]; HCT-116, Table 3): 33%
CDK2 % Inhibition at 0.03 μM ([3]; 0.03 μM compound, Table 3): 62%

Nc1nc(NC2CCN(S(=O)(=O)c3ccc(CCNc4cccc(O)c4)nc3)CC2)sc1C(=O)c1c(F)cccc1F [Example N6, [4-Amino-2-(1-{6-[2-(3-hydroxy-phenylamino)-ethyl]-pyridine-3-sulfonyl}-piperidin-4-ylamino)-thiazol-5-yl]-(2,6-difluoro-phenyl)-methanone Hydrochloride Salt.]
Ki [1]: 0.00031 µM
IC50 ([2]; first HCT-116 column (c4)): 0.41 µM
IC50 ([2]; second HCT-116 column (c5)): 1.3 µM
Ki [3]: 0.0003 µM

CC1(C)CN(c2ccc(S(=O)(=O)N3CCC(Nc4nc(N)c(C(=O)c5c(F)cccc5F)s4)CC3)cn2)C=N1 [Example G21, 1-(4-Amino-2-{1-[6-(4,4-dimethyl-4,5-dihydro-imidazol-1-yl)-pyridine-3-sulfonyl]-piperidin-4-ylamino}-thiazol-5-yl)-1-(2,6-difluoro-phenyl)-methanone]
Ki [1]: 0.00068 µM
IC50 ([2]; first HCT-116 column (c4)): 1.9 µM
IC50 ([2]; second HCT-116 column (c5)): > 5 µM
Ki [3]: < 0.001 µM

Cc1ccc(C(=O)N2CCC(Nc3nc(N)c(C(=O)c4c(F)cccc4F)s3)CC2)cc1C [Example R141]
CDK4 % Inhibition at 0.03 μM ([1]; at 0.03 μM): 82%
HCT-116 % Inhibition at 0.1 μM ([2]; HCT-116 cells, at 0.1 μM): 33%
HCT-116 5 Inhibition at 0.25 μM ([2]; HCT-116 cells): 77
CDK2 % Inhibition at 0.03 μM ([3]; at 0.03 μM): 68%

Cc1ncc(-c2ccc(S(=O)(=O)N3CCC(Nc4nc(N)c(C(=O)c5c(F)cccc5F)s4)CC3)cc2)[nH]1 [Example F33, 1-(4-Amino-2-{1-[4-(2-methyl-1H-imidazol-4-yl)-benzenesulfonyl]-piperidin-4-ylamino}-thiazol-5-yl)-1-(2,6-difluoro-phenyl)-methanone Dihydrochloride]
Ki [1]: 0.00028 µM
IC50 ([2]; first HCT-116 column (c4)): 0.16 µM
IC50 ([2]; second HCT-116 column (c5)): 1.6 µM
Ki [3]: 0.00028 µM

COC(=O)c1cc(NC(=O)N2CCC(Nc3nc(N)c(C(=O)c4c(F)cccc4F)s3)CC2)cc(C(=O)OC)c1 [Example O59]
CDK4 % Inhibition at 0.03 μM ([1]; 0.03 μM compound, Table 2): 7%
HCT-116 % Inhibition at 0.25 μM ([2]; HCT-116, Table 2): 32%
CDK2 % Inhibition At 0.03 μM ([3]; 0.03 μM compound): 28%

Nc1nc(NC2CCN(C(=O)c3ccc(-c4ccccc4)cc3)CC2)sc1C(=O)c1c(F)cccc1F [Example R149]
CDK4 % Inhibition at 0.03 μM ([1]; at 0.03 μM): 51%
HCT-116 % Inhibition at 0.1 μM ([2]; HCT-116 cells, at 0.1 μM): 11%
HCT-116 5 Inhibition at 0.25 μM ([2]; HCT-116 cells): 43
CDK2 % Inhibition at 0.03 μM ([3]; at 0.03 μM): 28%

CC(NC(=O)N1CCC(Nc2nc(N)c(C(=O)c3c(F)cccc3F)s2)CC1)c1ccccc1 (stereo not drawn) [Example O28]
CDK4 % Inhibition at 0.03 μM ([1]; 0.03 μM compound, Table 2, 0.03 µM): 12%
HCT-116 % Inhibition at 0.25 μM ([2]; HCT-116, Table 2, 0.25 µM): 43%
CDK2 % Inhibition At 0.03 μM ([3]; 0.03 μM compound, 0.03 µM): 27%

Nc1nc(NC2CCN(C(=O)c3ccc([N+](=O)[O-])cc3)CC2)sc1C(=O)c1c(F)cccc1F [Example Q71]
CDK4 % Inhibition at 0.03 μM ([1]; 0.03 μM compound, Table 4): 61%
HCT-116 % Inhibition at 0.1 μM [2, 4]: 2%
HCT-116 % Inhibition at 0.25 μM ([2]; HCT-116, Table 4): 30%
CDK2 % Inhibition at 0.03 μM ([3]; 0.03 μM compound, Table 4): 28%

N#Cc1ccccc1S(=O)(=O)N1CCC(Nc2nc(N)c(C(=O)c3c(F)cccc3F)s2)CC1 [Example P48]
CDK4 % Inhibition at 0.03 μM ([1]; 0.03 μM compound, Table 3): 67%
HCT-116 % Inhibition at 0.1 μM [2, 5]: 24%
HCT-116 % Inhibition at 0.25 μM ([2]; HCT-116, Table 3): 31%
CDK2 % Inhibition at 0.03 μM ([3]; 0.03 μM compound, Table 3): 59%

Nc1nc(NC2CCN(C(=O)c3cccnc3)CC2)sc1C(=O)c1c(F)cccc1F [Example Q80]
CDK4 % Inhibition at 0.03 μM ([1]; 0.03 μM compound, Table 4): 50%
HCT-116 % Inhibition at 0.1 μM [2, 4]: 10%
HCT-116 % Inhibition at 0.25 μM ([2]; HCT-116, Table 4): 27%
CDK2 % Inhibition at 0.03 μM ([3]; 0.03 μM compound, Table 4): 20%

CN1CCC[C@H](COc2ccc(S(=O)(=O)N3CCC(Nc4nc(N)c(C(=O)c5c(F)cccc5F)s4)CC3)cn2)C1 [Example H11, 1-(4-Amino-2-{1-[6-(1-methyl-piperidin-3S-ylmethoxy)-pyridine-3-sulfonyl]-piperidin-4-ylamino}-thiazol-5-yl)-1-(2,6-difluoro-phenyl)-methanone Dihydrochloride]
Ki [1]: 0.00028 µM
IC50 ([2]; first HCT-116 column (c4)): 0.042 µM
IC50 ([2]; second HCT-116 column (c5)): 0.13 µM
Ki [3]: 0.0069 µM

Nc1nc(NC2CCN(C(=O)c3c(F)cccc3Cl)CC2)sc1C(=O)c1c(F)cccc1F [Example R109]
CDK4 % Inhibition at 0.03 μM ([1]; at 0.03 μM): 34%
HCT-116 % Inhibition at 0.1 μM ([2]; HCT-116 cells, at 0.1 μM): 14%
HCT-116 5 Inhibition at 0.25 μM ([2]; HCT-116 cells): 47
CDK2 % Inhibition at 0.03 μM ([3]; at 0.03 μM): 21%

CS(=O)(=O)c1csc(C(=O)N2CCC(Nc3nc(N)c(C(=O)c4c(F)cccc4F)s3)CC2)c1Cl [Example R72]
CDK4 % Inhibition at 0.03 μM ([1]; at 0.03 μM): 59%
HCT-116 % Inhibition at 0.1 μM ([2]; HCT-116 cells, at 0.1 μM): 6%
HCT-116 5 Inhibition at 0.25 μM ([2]; HCT-116 cells): 43
CDK2 % Inhibition at 0.03 μM ([3]; at 0.03 μM): 57%

CC1CCCC(NCCS(=O)(=O)N2CCC(Nc3nc(N)c(C(=O)c4c(F)cccc4F)s3)CC2)C1 (mixture of isomers) [Example K43, (4-Amino-2-{1-[2-(3(cis/trans)-methyl-cyclohexylamino)-ethanesulfonyl]-piperidin-4-ylamino}-thiazol-5-yl)-(2,6-difluoro-phenyl)-methanone]
Ki [1]: 0.0024 µM
IC50 ([2]; first HCT-116 column (c4)): 0.051 µM
IC50 ([2]; second HCT-116 column (c5)): 0.3 µM
Ki [3]: 0.00057 µM
